Measurements taken from patent US11458180B2, “Environmentally-friendly preparation method of composition containing anti-inflammatory active ingredients and use of composition” (SHANGHAI JAKA BIOTECH CO., LTD., priority 2019, dated 2022).

System: PGE-2
Assay: Anti-inflammatory effect: LPS-induced PGE-2 expression by ELISA
Assay type: cell-based, mouse
Details: LPS 1 μg/ml stimulated Raw 264.7 cells, 10 μM, relative to LPS group
Experimental: In this experiment, Raw 264.7 cells were stimulated by LPS, then cell culture was collected, and the expression of the inflammatory factor PGE-2 was determined by enzyme-linked immunosorbent assay (ELISA). The compositions obtained in the examples and comparative examples were compared in terms of the influence on anti-inflammatory effects. Raw264.7 cells and LPS were used for the experiment.
Raw264.7 cells at logarithmic growth phase were collected as follows: culture medium was discarded, and the cells were washed twice with PBS, added with 0.25% trypsin, and placed at 37° C. for 5 min; digestion was terminated with DMEM complete culture medium including 10% FBS and 1% PS, and a resulting solution was centrifuged at 1,000 rpm for 3 min; and a resulting supernatant was discarded, and obtained cells were resuspended in complete culture medium and counted. A cell concentration was adjusted to 5×10^5 cells/ml, and a resulting cell suspension was added to a 96-well plate at 100 µl/well. […]
After the treatment, cell culture was collected to a new 96-well plate, and the expression of PGE-2 was determined by ELISA according to instructions of a kit. A PGE-2 content (E) was calculated according to a standard curve, and relative to the LPS group, a relative inhibition rate was calculated for each sample (inhibition rate (%)=(1-Etest substance group/ELPS group)×100).

## C[C@@H]1C[C@H]2[C@@H]3CCC4=CC(=O)C=C[C@]4(C)[C@@]3(F)[C@@H](O)C[C@]2(C)[C@@]1(O)C(=O)CO [Dex, dexamethasone]
  inhibition rate of PGE-2 expression: 75.27%
